In US20180179166A1, “SMALL MOLECULE INHIBITORS OF GP120-MEDIATED HIV INFECTION AND METHODS OF USE” (ViroCarb Inc., priority 2014, published 2018):

Molecular target: R5 gp120 (Human immunodeficiency virus type 1 group M subtype B, UniProt P35961)
Conditions: CD4/CCR5 transfected U87 cells; 20 μg/mL gp120; western blot
Method: Cell bound R5 gp120 was detected by western blot. […] Lanes 1: cells alone; Cells treated with 2: 20 μg/mL gp120; 3: 20 μg/mL gp120+20 μM adaGb Gb3; 4: 20 μg/mL gp120+50 μM ada Gb3; 5: 20 μg/mL gp120+150 μM ada Gb3; 6: 20 μg/mL gp120+5 μg/mL solCD4; 7: 20 μg/mL gp120+5 μg/mL solCD4+20 μM ada Gb3; 8: 20 μg/mL gp120+5 μg/mL solCD4+50 μM ada Gb3; 9: 20 μg/mL gp120+5 μg/mL solCD4+150 μM ada Gb3; 10: 20 μg/mL gp120+50 μM.

CCCCCCCCCCCCC/C=C/[C@@H](O)[C@H](CO[C@@H]1O[C@H](CO)[C@@H](O[C@@H]2O[C@H](CO)[C@H](O[C@H]3O[C@H](CO)[C@H](O)[C@H](O)[C@H]3O)[C@H](O)[C@H]2O)[C@H](O)[C@H]1O)NC(=O)CC12CC3CC(CC(C3)C1)C2 [AdamantylGb3]
binding of R5 gp120 to CCR5 of cells after pretreatment of gp120: reduces its binding to CCR5 of cells
